{"source": "patent US20090076050A1", "about": "“SYNERGISTIC TUMOR-KILLING EFFECT OF RADIATION AND BERBERINE COMBINED TREATMENT IN LUNG CANCER” (CHUNG SHAN MEDICAL U., priority 2007, published 2009)", "test_system": "A549 cells", "assay": "electron microscopic analysis of autophagy", "assay_type": "cell-based, human", "conditions": "IR and 5.0 μM berberine, 24 h", "description": "Autophagic cell death has been recognized as programmed cell death type II, it has been detected in a variety of cancer cells treated with radiation or chemotherapy. Therefore, it had been examined whether IR treatment combined with berberine induced autophagic cell death in A549 cells by electron microscopic analysis (FIG. 4A). Cells were harvested by trypsinization, and fixed with 2% glutaraldehyde, 4% paraformaldehyde and 1% tannic acid in 0.1 mol/L cacodylate buffer, pH 7.4, for 25 h. The cells were stained with an osmium-thiocarbohydrazide-osmium (OTO). After staining, the cells were dehydrated in a graded series of 70% to 100% EtOH and then immersed serially with 1:1 hexamethyldisilazane and absolute ethanol. […] Autophagy is characterized by the development of AVOs, which is measured by vital staining of acridine orange. […] To quantitate acidic vesicular organelles, Stained cells were collected for the FACScan (Becton Dickinson, San Jose, Calif.) using CellQuest software (Becton Dickinson). Acridine orange-positive cells with bright red fluorescence were detected among A549 cells 24 h after co-treated with berberine and IR (6 Gy), whereas they were sparse among non-treated cells or irradiated cells (FIG. 4B). […]"}
{"smiles": "COc1ccc2cc3[n+](cc2c1OC)CCc1cc2c(cc1-3)OCO2", "note": "[berberine, Berberine]", "values": [{"measurement": "autophagic vacuoles by electron microscopy", "result": "Numerous empty vacuoles and autophagic vacuoles"}]}
